Data from PMC3158247 (Journal of medicinal chemistry, 2011).

Assays:
[1] = test system: HBV-transgenic mice (strain 1.3.32); assay type: in vivo; settings: oral gavage once daily for 14 days
HepG2.2.15 cell line = settings: MTT assay

Row | Structure (SMILES) | alanine transaminase (ALT) and bilirubin [1] | other serum chemistry changes [1] | total sodium [1] | deaths as a result of compound exposure ([1]; 25 and 7.9 mg/kg) | weight loss, morphological or behavioral changes ([1]; 25 and 7.9 mg/kg) | No cytotoxicity observed up to the highest concentration tested (HepG2.2.15 cell line) [µM] | tolerability (CL57BL/6 mice; CL57BL/6 (normal) mice) | platelets, neutrophils, lymphocytes (trend) (CL57BL/6 mice; single intravenous bolus 25 mg/kg, 24 hours) | serum chemistry (CL57BL/6 mice; single intravenous bolus, […] 1a and 7.9 mg/kg 3c respectively, 24 hours)
1 | Fc1cccc(Cl)c1C1CC(c2ccc(Cl)cc2)Nc2ncnn21 (racemic) [Compound 1a, 7-(2-Chloro-6-fluorophenyl)-5-(4-chlorophenyl)-4,5,6,7-tetrahydro-[1,2,4]triazolo[1,5-a]pyrimidine] | elevated levels of alanine transaminase (ALT) and bilirubin in a minority of treated animals | did not result in any other obvious and significant dose-dependent serum chemistry changes | slight rise in total sodium | No animals were observed to have died as a result of compound exposure | No weight loss, morphological or behavioral changes were noted | > 50 | well-tolerated | trend towards reduction of platelets and neutrophils, and also an increase in lymphocytes | unaffected
2 | Fc1cccc(Cl)c1C1CC(c2ccc(Cl)cc2)Nc2ncnn21 (single isomer, unassigned) [enantiomer 1 of 1a] |  |  |  |  |  | > 50 |  |  | 
3 | Fc1cccc(F)c1C1C=C(c2ccc(Cl)cc2)Nc2ncnn21 (centres unmarked) [Compound 3c, 5-(4-Chlorophenyl)-7-(2,6-difluorophenyl)-4,7-dihydro-[1,2,4]triazolo[1,5-a]pyrimidine] |  |  |  | No animals were observed to have died as a result of compound exposure |  |  |  |  | 
